# Assay: DPPH radical scavenging antioxidant test (absorbance at 517 nm)
# Type: biochemical
# Conditions: radical scavenging inhibition of DPPH, 0.2 mL DPPH (0.75 mM), compound 3 μM in ethanol, 30 min in the dark
# Description: The antioxidant properties of the 8-(4-nitroxybenzylideneamino)naphthalene-1,3-disulfonic acid were studied by adding 0.2 mL DPPH (0.75 mM)) to compound 8-(4-nitroxybenzylideneamino)naphthalene-1,3-disulfonic acid (III) (3 μM) in ethanol. After 30 min of incubation in the dark, the absorbance was read against a blank at 517 nm. Ascorbic acid (vitamin C) was used as standard antioxidants (positive control). A blank sample was prepared by 0.2 ml of DPPH in 3 ml ethanol. A negative control sample was run using ethanol instead of the sample. The radical scavenging inhibition was calculated using the following equation: […]
smiles,measurement,value
"O=C1O[C@H]([C@@H](O)CO)C(O)=C1O [vit c, Ascorbic acid]",Inhibition,74%
